Data as given in PMC11152041, “Tricarbonyl rhenium(I) complexes with 8-hydroxyquinolines: structural, chemical, antibacterial, and anticancer characteristics” (RSC Advances, 2024).
Where two headings read alike, the source gives them in different places.

Assays:
[1] = system: P. aeruginosa ATCC27853; assay: Broth microdilution MIC/MBC (ISO 20776-1); assay type: cell-based, Pseudomonas aeruginosa; conditions: for MBC: P. aeruginosa ATCC27853, >99.99% reduction of growth; for MIC: P. aeruginosa ATCC27853, MH II broth, 35 °C, 24 h
Method: (§1) Bacterial strains and cell lines were obtained from the American Type Culture Collection (ATCC).[59] […] Antimicrobial activity was tested in Müeller Hinton (MH) II broth (Becton Dickinson). For anticancer activity assay, the following reagents from Merk were used: 3-(4,5-dimethylthiazol-2-yl)-2,5-diphenyltetrazolium bromide (MTT), sodium dodecyl sulfate (SDS) and HCl. The solubilized formazan product was spectrophotometrically quantified in a Power Wave XS (Bio Tek, Winooski, VT, USA) microplate reader. The HL-60 and PC-3 cells were grown in RPMI-1640 medium with stable glutamine (Biowest) supplemented with 10% (v/v) of heat-inactivated fetal bovine serum (FBS, Biowest) and 1% (v/v) of antibiotic–antimycotic solution (Biowest). The SKOV-3 cells were grown in McCoy's 5A medium with L-glutamine (Biowest) supplemented with 10% (v/v) heat-inactivated FBS, and 1% (v/v) antibiotic–antimycotic solution. The MCF-7 cells were grown in Eagle's MEM (Minimal Essential Medium) medium with stable glutamine (Biowest), supplemented with 10% (v/v) heat-inactivated FBS 1% (v/v) MEM non-essential amino acids (Biowest), 1% (v/v) antibiotic–antimycotic solution, and 1 mM sodium pyruvate (Merck). The MCF-10A cells were grown in Ham's F-12K (Kaighn's) Medium with stable glutamine (Gibco) supplemented with 5% (v/v) heat-inactivated FBS, 1% (v/v) MEM non-essential amino acids, 1% (v/v) antibiotic–antimycotic solution, 5 μg mL^−1 insulin, 0.04 μg mL^−1 hydrocortisone (Merck), and 15 ng mL^−1 human Epidermal Growth Factor (hEGF, PeproTech).
(§2) The in vitro antibacterial activity was determined according to ISO 20776-1.[88] Among the tested microorganisms were Gram-negative rods, E. coli ATCC25922 and P. aeruginosa ATCC27853, and Gram-positive cocci, S. aureus ATCC29213 and E. faecalis ATCC29212. The selected bacterial species represented the most common etiologic agents of human infections and are used for quality control of antimicrobial susceptibility testing.[89] The test procedure included the determination of MICs and MBCs of complexes and their free ligands. MIC and MBC determinations of ciprofloxacin, as the reference antibiotic, were also performed. All compounds were dissolved in DMSO to reach the maximum 512 mg L^−1 concentration. […] The assay consisted of preparing 2-fold dilutions of the substances in a liquid growth medium MH II and inoculating them with a standardized suspension of microorganisms at a McFarland density of 0.5 (≈10^8 CFU mL^−1). The culture plates were incubated at 35 °C for 24 h. The lowest concentration of the compound inhibiting visible bacterial growth was specified as MIC, and the concentration that reduced bacterial growth by >99.99% after counting live bacteria on the plates compared to the positive control was defined as MBC.

[2] = system: MCF-10A cells; assay: MTT cytotoxicity assay; conditions: for solubility in the cytotoxicity assay: MCF-10A cell line culture medium; for IC50: read-out: IC50 ± SD, MCF-10A (non-cancerous), MTT, * precipitation of the complex
Method: (§3) The cytotoxicities for studied compounds were evaluated against leukemia cells (HL-60), as well as ovarian (SKOV-3), prostate (PC-3), and breast (MCF-7) cancer cell lines. The potential selectivity of these compounds towards cancer cells was assessed by determination of their cytotoxicities towards breast non-cancerous cells (MCF-10A). For comparison, cisplatin was added to the cytotoxicity assays.
as §1
(§4) The cells were cultured in 96-well plates and incubated with the tested compound for 24 h and 48 h. All experiments were performed in exponentially growing cultures. The 0.03 M solutions of the compounds in DMSO were appropriately diluted using culture media. The maximal final concentration of DMSO in each well was 0.1%. The cytotoxicity of the compounds was measured by determining cell viability with a colorimetric test based on 3-(4,5-dimethylthiazol-2-yl)-2,5-diphenyltetrazolium bromide (MTT). MTT stock solution was added to each well to a final concentration of 0.5 mg mL^−1 and incubated for 4 h at 37 °C; following formazan crystals were dissolved by the addition of sodium dodecyl sulfate (SDS) solution (10% SDS in 0.001 M HCl). MTT and SDS were added directly to the cell culture. The compound's IC50 values (concentration required to reduce the viability of cells by 50% compared with the control cells) were calculated from the data obtained with the MTT assay.

[3] = system: E. coli ATCC25922; assay: Broth microdilution MIC/MBC (ISO 20776-1); assay type: cell-based, Escherichia coli; conditions: for MBC: E. coli ATCC25922, >99.99% reduction of growth; for MIC: E. coli ATCC25922, MH II broth, 35 °C, 24 h
Method: as §1, §2

[4] = system: S. aureus ATCC29213; assay: Broth microdilution MIC/MBC (ISO 20776-1); assay type: cell-based, Staphylococcus aureus; conditions: for MBC: S. aureus ATCC29213, >99.99% reduction of growth; for MIC: S. aureus ATCC29213, MH II broth, 35 °C, 24 h
Method: as §1, §2

[5] = system: MCF-7 cells; assay: MTT cytotoxicity assay; assay type: cell-based, human; conditions: MTT, read-out: IC50 ± SD
Method: as §3, §1, §4

[6] = system: HL-60 cells; assay: MTT cytotoxicity assay; assay type: cell-based, human; conditions: MTT, read-out: IC50 ± SD
Method: as §3, §1, §4

[7] = system: PC-3 cells; assay: MTT cytotoxicity assay; assay type: cell-based, human; conditions: for IC50: MTT, read-out: IC50 ± SD
Method: as §3, §1, §4

[8] = system: SKOV-3 cells; assay: MTT cytotoxicity assay; assay type: cell-based, human; conditions: MTT, read-out: IC50 ± SD
Method: as §3, §1, §4

[9] = system: E. faecalis ATCC29212; assay: Broth microdilution MIC/MBC (ISO 20776-1); assay type: cell-based, Enterococcus faecalis; conditions: for MBC: E. faecalis ATCC29212, >99.99% reduction of growth; for MIC: E. faecalis ATCC29212, MH II broth, 35 °C, 24 h
Method: as §1, §2

| Molecule | MBC [1] | MIC [1] | IC50 ([2]; 24 h) [µM] | IC50 ([2]; 48 h) [µM] | MBC [3] | MIC [3] | MBC [4] | MIC [4] | IC50 ([5]; MCF-7, 24 h) [µM] | IC50 ([5]; MCF-7, 48 h) [µM] | IC50 ([6]; HL-60, 24 h) [µM] | IC50 ([6]; HL-60, 48 h) [µM] | IC50 ([7]; PC-3, 24 h) [µM] | IC50 ([7]; PC-3, 48 h) [µM] | IC50 ([8]; SKOV-3, 24 h) [µM] | IC50 ([8]; SKOV-3, 48 h) [µM] | MBC [9] | MIC [9] | also measured |
| --- | --- | --- | --- | --- | --- | --- | --- | --- | --- | --- | --- | --- | --- | --- | --- | --- | --- | --- | --- |
| Cc1ccc2cccc([O][Re])c2n1.[C-]#[O+].[C-]#[O+].[C-]#[O+].c1c[nH]cn1 [complex 5, [Re(CO)3(MeQ)Him]] | 64 mg/L | 16 mg/L | 50 ± 2 | > 50 | 16/16 mg L^−1 | 16/16 mg L^−1 | 512 mg/L | 16 mg/L | 47 ± 7 | 43 ± 6 | 11 ± 2 | 4 ± 1 | 11 ± 3 | 28 ± 6 | 31 ± 5 | 26 ± 11 | > 512 mg/L | 32 mg/L | fold better activity than the free MeHQ ligand ([1]; P. aeruginosa, MIC/MBC compared with MeHQ): 4 fold; solubility in the cytotoxicity assay [2]: precipitated at higher concentrations; fold decline of MBC compared to the free ligand ([3]; E. coli, compared with MeHQ): 5 fold; times lower effect after 48 h than after 24 h ([7]; PC-3, IC50 48 h versus 24 h): about 2.5 times; fold increase of MBC compared to the free ligand ([9]; E. faecalis, compared with MeHQ): 4 fold |
| Cc1ccc2cccc([O][Re])c2n1.Cc1ncc[nH]1.[C-]#[O+].[C-]#[O+].[C-]#[O+] [complex 6, [Re(CO)3(MeQ)MeHim]] | >512/>512 mg L^−1 | >512/>512 mg L^−1 | 66 ± 1 | 35 ± 1 | >512/>512 mg L^−1 | >512/>512 mg L^−1 | 512 mg/L | 64 mg/L | 44 ± 1 | 35 ± 6 | 14 ± 1 | 9 ± 1 | 54 ± 7 | 22 ± 5 | 32 ± 7 | 30 ± 9 | 256 mg/L | 64 mg/L |  |
| Cc1cc(C)[nH]n1.Cc1ccc2cccc([O][Re])c2n1.[C-]#[O+].[C-]#[O+].[C-]#[O+] [complex 7, [Re(CO)3(MeQ)Hdmpz]] | >512/>512 mg L^−1 | >512/>512 mg L^−1 | > 25 | > 25 | >512/>512 mg L^−1 | >512/>512 mg L^−1 | >512/>512 mg L^−1 | >512/>512 mg L^−1 | 27 ± 8 | 19 ± 4 | 13 ± 1 | 12 ± 1 | 16 ± 2 | 18 ± 4 | 29 ± 5 | 26 ± 5 | > 512 mg/L | 128 mg/L | solubility in the cytotoxicity assay [2]: precipitated at higher concentrations |
| Clc1ccc([O][Re])c2ncccc12.[C-]#[O+].[C-]#[O+].[C-]#[O+].c1c[nH]cn1 [complex 9, [Re(CO)3(ClQ)Him]] | > 512 mg/L | 256 mg/L | 42 ± 2 | 24 ± 1 | 256/256 mg L^−1 | 256/256 mg L^−1 | >512/>512 mg L^−1 | >512/>512 mg L^−1 | 58 ± 7 | 47 ± 6 | 11 ± 1 | 8 ± 2 | 29 ± 4 | 22 ± 3 | 32 ± 5 | 28 ± 4 | > 512 mg/L | 64 mg/L |  |
| Cc1cc(C)[nH]n1.Clc1ccc([O][Re])c2ncccc12.[C-]#[O+].[C-]#[O+].[C-]#[O+] [complex 11, [Re(CO)3(ClQ)Hdmpz]] | >512/>512 mg L^−1 | >512/>512 mg L^−1 | 24 ± 3 | 10 ± 1 | 512/>512 mg L^−1 | 512/>512 mg L^−1 | 256 mg/L | 64 mg/L | 18 ± 5 | 25 ± 3 | 5 ± 1 | 2.8 ± 0.4 | 18 ± 1 | 24 ± 4 | 40 ± 6 | 32 ± 7 | 64/64 mg L^−1 | 64/64 mg L^−1 |  |
| Clc1ccc([O][Re])c2ncccc12.[C-]#[O+].[C-]#[O+].[C-]#[O+].c1ccc(-c2ccn[nH]2)cc1 [complex 12, [Re(CO)3(ClQ)HPhpz]] | >512/>512 mg L^−1 | >512/>512 mg L^−1 | 34 ± 3 | 14 ± 1 | >512/>512 mg L^−1 | >512/>512 mg L^−1 | > 512 mg/L | 128 mg/L | 29 ± 3 | 25 ± 4 | 2 ± 1 | 1.5 ± 0.4 | 41 ± 8 | 23 ± 4 | > 100 | 78 ± 12 | > 512 mg/L | 16 mg/L |  |
| [Re(CO)3(ClQ)MeHim]·CH3CN [complex 10] | 512/>512 mg L^−1 | 512/>512 mg L^−1 | 15 ± 1 | 12 ± 1 | 512/>512 mg L^−1 | 512/>512 mg L^−1 | > 512 mg/L | 64 mg/L | 54 ± 4 | 53 ± 4 | 5 ± 1 | 7 ± 1 | 23 ± 2 | 23 ± 2 | 34 ± 5 | 32 ± 7 | > 512 mg/L | 4 mg/L |  |
